Assays:
[1] = system: H4IIE cells; test: 3H-deoxyglucose uptake by H4IIE cells; format: cell-based, rat; conditions: for 3H-deoxy-glucose uptake (basal) by H4IIE cells: insulin 10^-6 M, 2 μL (0.4% v/v) of BWE, D-CI or MI, versus untreated cells
Protocol: Tissue culture media, antibiotics, fetal bovine serum (FBS) and Nunc tissue culture plates were purchased from Gibco-BRL (division of Invitrogen Canada Inc.). Insulin (Sigma-Aldrich Canada Ltd.) was dissolved in water and added directly to cells at a final concentration of 10^−6 M. The buckwheat extract was prepared and analyzed as in Example 1. Two μL of the buckwheat extract were added directly to cells unless otherwise indicated. Myo-inositol (Sigma Aldrich Canada Ltd.) and D-chiro-inositol (Industrial Research Ltd.) were dissolved in water at an equal concentration to the amounts present in the BWE (Table 3) and 2 μL of each solution was added directly to cells.
(§1) Rat H4IIE hepatoma cells (American Type Culture Collection, CRL 1548) were cultured as described in Example 3. Briefly, cells were maintained in α-modified Eagle's media containing 10% FBS, 2 mM glutamine, 50 μg·mL^−1 streptomycin and 50 μg·mL^−1 penicillin. Cells were plated and grown to 70% confluence. All cells were placed into serum-free medium for 72 h before addition of stimulating agents to ensure entry into a quiescent state.
^3H-deoxyglucose uptake was assayed using the method disclosed by Harrison et al. (1990, J. Biol. Chem. 265(10):5793-5801). Quiescent H4IIE cells, in 24-well culture dishes containing 1 mL serum-free medium, were washed three times with physiological salt solution (PSS) ([…], pH 7.4). Cells were placed into 0.5 mL PSS and pre-incubated with inhibitors for 10 minutes prior to the 20 minute stimulation with treatments (insulin, BWE, D-CI, MI). For all experiments, insulin was added at a concentration of 10^−6 M whereas 2 μL volumes of the BWE, D-CI, or MI (0.4% v/v final concentration) were added to cells unless otherwise indicated in figures. Sugar uptake was initiated by the addition of ^3H-deoxyglucose to a final assay concentration of 0.1 mM glucose (1 mCi/mL) and the cells were subsequently incubated for 5 minutes at 37° C. After two rapid washes with ice-cold PSS (0.5-1 mL/well), the cells were solubilized with 0.4 mL of 0.1% SDS, and ^3H was detected in 3 mL of EcoLume scintillant (MP Biomedicals Inc., Costa Mesa, Calif., USA, 92626).
Statistical significance between treatments was determined by one-way ANOVA and by Duncan's multiple range test for means testing (SAS v.9.1, SAS Institute Inc., Cary, N.C.). […] Data are expressed as the mean±SE.
Since insulin has the same effect, we compared the ability of BWE, insulin and two insulin-mimetic compounds (D-CI and MI) to stimulate glucose uptake by H4IIE hepatoma cells. […] Radio-labelled deoxyglucose was added to the medium and glucose uptake was determined by the detection of ^3H in cells.
Fractions (˜1.0 ml) from each solvent extraction were collected and assayed for their effects on MAPK activation as described in Example 3. The effects of selected fractions, alone or in combination with insulin, on the uptake of labelled glucose were assessed following the methods described in Example 4. […] The effects of the solvent fractions on H4IIE cells were assessed with 20-min exposure periods after which, sugar uptake was initiated by the addition of ^3H-deoxyglucose to a final assay concentration of 0.1 mM glucose (1 mCi/mL) and the cells were subsequently incubated for 5 minutes at 37° C. After two rapid washes with ice-cold PSS (0.5-1 mL/well), the cells were solubilized with 0.4 mL of 0.1% SDS, and ^3H was detected in 3 mL of EcoLume scintillant. […]

[2] = system: STAT3 (Tyr705); test: Western blot of STAT3 phosphorylation in H4IIE cells; format: cell-based, rat; conditions: 6 minutes
Protocol: Tissue culture media, antibiotics, fetal bovine serum (FBS) and Nunc tissue culture plates were purchased from Invitrogen Canada Inc. (Burlington, Ontario, Canada, L7P 1A1). Insulin (Sigma-Aldrich Canada Ltd., Oakville, Ontario, Canada, L6H 6J8) was dissolved in water and added directly to cells at a concentration of 250 nM unless otherwise indicated. The BWE was prepared and analyzed as described in Example 1. Two μL of the BWE were added directly to cells unless otherwise indicated. This amount was chosen on the basis of equivalence to insulin. Myo-inositol (Sigma-Aldrich Canada Ltd.) and D-chiro-inositol (Industrial Research Ltd., Wellington, New Zealand) were dissolved in water at an equal concentration to the amounts present in the BWE (Table 3) and 2 μL of each solution (0.1% v/v final concentration) was added directly to cells.
as §1, with “cultured following the method disclosed by Yau et al., (1998, Eur. J. Biochem. 253: 91-1). The H4IIE” for “cultured as described in Example 3. Briefly,”, “glutamine, 25” for “glutamine, 50”, “and 25 units·mL^−1” for “and 50 μg·mL^−1”, “state. […]” for “state.”
Cellular protein extracts were prepared by addition of 200 μL 2×SDS/gel loading buffer (0.125 M Tris pH 6.8, 2% SDS, 10% glycerol) to H4IIE cells in 12-well culture dishes. The samples were briefly sonicated, and protein content measured using the BCA protein assay kit. […] HRP was detected using the ECL chemiluminescent system after the membranes had been washed four times.
Quantification of data obtained on film (Kodak X-omat) was accomplished with a GS800 imaging densitometer (Bio-Rad Laboratories) under nonsaturating conditions with local background subtraction. […]

## COc1cccc(-c2cc(=O)c3ccccc3o2)c1N [PD98059]
[1]; H4IIE cells, pre-incubated with inhibitor, then insulin
  effect of the inhibitor on insulin-stimulated glucose uptake (FIG. 23): decreased insulin-stimulated glucose uptake

## OC1C(O)C(O)C(O)C(O)C1O [D-CI, D-chiro-inositol]
[2]
  phosphorylation of STAT3: do not provide comparable stimulation
[1]
  3H-deoxy-glucose uptake (basal) by H4IIE cells: stimulated glucose uptake

## O[C@H]1[C@H](O)[C@@H](O)[C@H](O)[C@@H](O)[C@H]1O [MI, myo-inositol]
[2]
  phosphorylation of STAT3: do not provide comparable stimulation
[1]
  3H-deoxy-glucose uptake (basal) by H4IIE cells: not statistically different from untreated cells

## insulin: Insulin (Sigma-Aldrich) dissolved in water, positive comparator
[2]
  phosphorylation of STAT3: phosphorylated in response to insulin
[1]
  3H-deoxy-glucose uptake (basal) by H4IIE cells: stimulated glucose uptake

Source: patent publication US7993687B2, “Compositions and methods for management of diabetes” (priority 2006, dated 2011)
